In publication PMC9102502, “The Influence of Selected Antipsychotic Drugs on Biochemical Aspects of Alzheimer’s Disease” (International Journal of Molecular Sciences, 2022):
“And” between values parts separate entries of the source, which are not always exact repeats. Equal values may be shown once.

Assays:
[1] = target: T1, human plasma butyrylcholinesterase (Homo sapiens, UniProt P06276); test: BuChE inhibition, modified Ellman's method; format: biochemical; settings: experimental data; mean ± SD, n = 6–9; read-out: IC50 BuChE
T1 construct: The solution of plasma 200-fold diluted with 0.9% NaCl; from tissue; host or cells: citrated plasma from blood of healthy human donors
T1 sequence (P06276 29-602): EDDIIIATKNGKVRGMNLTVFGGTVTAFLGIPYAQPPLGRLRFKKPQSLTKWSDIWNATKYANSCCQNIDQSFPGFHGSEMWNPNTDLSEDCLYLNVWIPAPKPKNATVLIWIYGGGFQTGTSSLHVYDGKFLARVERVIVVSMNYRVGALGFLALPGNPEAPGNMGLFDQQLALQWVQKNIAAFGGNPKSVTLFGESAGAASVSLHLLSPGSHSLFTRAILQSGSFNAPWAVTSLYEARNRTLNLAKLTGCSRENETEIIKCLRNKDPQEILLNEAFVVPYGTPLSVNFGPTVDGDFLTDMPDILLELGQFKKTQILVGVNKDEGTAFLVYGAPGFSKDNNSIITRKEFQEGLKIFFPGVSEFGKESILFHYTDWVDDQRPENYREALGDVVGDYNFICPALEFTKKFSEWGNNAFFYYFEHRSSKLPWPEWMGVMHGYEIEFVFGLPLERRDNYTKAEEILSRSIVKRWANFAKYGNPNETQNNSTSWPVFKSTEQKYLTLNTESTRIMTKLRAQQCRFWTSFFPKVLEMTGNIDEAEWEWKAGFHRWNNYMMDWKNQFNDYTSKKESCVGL

[2] = target: T2, human erythrocyte acetylcholinesterase (Homo sapiens, UniProt P22303); test: AChE inhibition, modified Ellman's method; format: biochemical
T2 construct: solution of hemolyzed erythrocytes diluted 400-fold; from tissue; host or cells: hemolyzed erythrocytes from blood of healthy human donors
T2 sequence (P22303 32-617 isoform P22303-2 limits assumed): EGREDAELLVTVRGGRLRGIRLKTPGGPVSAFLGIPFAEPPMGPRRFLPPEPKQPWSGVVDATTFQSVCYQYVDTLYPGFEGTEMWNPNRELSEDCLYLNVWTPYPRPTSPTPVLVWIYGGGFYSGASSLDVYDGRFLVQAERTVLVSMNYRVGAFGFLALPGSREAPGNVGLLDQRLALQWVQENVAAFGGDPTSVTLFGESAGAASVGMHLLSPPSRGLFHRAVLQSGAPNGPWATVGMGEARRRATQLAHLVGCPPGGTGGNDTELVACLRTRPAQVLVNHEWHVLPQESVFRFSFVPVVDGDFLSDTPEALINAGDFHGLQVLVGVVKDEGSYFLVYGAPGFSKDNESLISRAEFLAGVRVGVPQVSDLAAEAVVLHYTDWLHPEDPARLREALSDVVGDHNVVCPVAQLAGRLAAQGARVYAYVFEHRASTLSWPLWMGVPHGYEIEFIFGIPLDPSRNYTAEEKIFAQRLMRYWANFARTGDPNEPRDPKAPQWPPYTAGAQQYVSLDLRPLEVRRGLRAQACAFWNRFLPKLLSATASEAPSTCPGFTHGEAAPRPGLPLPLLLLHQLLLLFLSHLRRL

[3] = target: T3, recombinant human β-amyloid (1–42) (Homo sapiens, UniProt P05067); test: Beta-amyloid aggregation, Thioflavin T fluorescence; format: biochemical; settings: 24 and 48 h; both tested concentrations
T3 construct: recombinant human β-amyloid (1–42; ultrapure); purchased Sigma-Aldrich (St. Louis, MO, USA)
T3 sequence (P05067 672-713 limits assumed): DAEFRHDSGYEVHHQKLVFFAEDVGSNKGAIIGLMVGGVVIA
Method in brief: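 Aβ42 (DMSO stock, pre-warmed 15 min at 37 °C) at 20 μmol/L final incubated with antipsychotics at TPC and 1/2 × TPC, with 5 µmol/L ThT added. Fluorescence (Ex/Em 440/484 nm, room temperature) read at 10, 30, 60, 90 min, 24 and 48 h; peptide-only control set as 100% aggregation.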

BuChE [4] = target: T4, BuChE (Homo sapiens, UniProt P06276); test: Kinetic parameters of enzymatic reaction (Hanes–Woolf), BuChE; format: biochemical; set-up: The solution of plasma 200-fold diluted with 0.9% NaCl; from tissue; host or cells: citrated plasma from blood of healthy human donors
T4 sequence (P06276 29-602): as the sequence (P06276 29-602) above
Protocol: Kinetic parameters were obtained on the basis of three individual experiments carried out on different biological materials. For this purpose, various concentrations of substrates (ATC and BTC) were used in experiments. The type of inhibition and kinetic parameters of enzymatic reactions were obtained by linear regression using the Hanes–Woolf equations.
AChE SI (selectivity index) was calculated by using the following formula: SI = IC50 of BuChE/IC50 of AChE. However, BuChE SI was defined as IC50 of AChE/IC50 of BuChE. Maximal velocity (Vmax) and the Michaelis constant (Km) were calculated with the use of linear regression—according to the Hanes–Woolf plot.

human erythrocytes = test: Methemoglobin formation in RBC with AAPH; format: cell-based; settings: 5 h, AAPH control 61.9%
Protocol: The blood samples were centrifuged (3000 rpm, 10 min, 20 °C, Micro 22 R centrifuge, Hettich Zentrifugen, Tuttlingen, Germany) to separate erythrocytes from the plasma and washed three times with 0.9% saline (NaCl). […] The erythrocytes were suspended in 0.9% saline. As control of basal hemolysis, erythrocytes were incubated with 0.9% NaCl. For total hemolysis control erythrocytes were incubated with 2.0% v/v Triton X-100. Incubation with Triton X-100 and K4[Fe(CN)6] (at concentration 50 g/L) was performed to control methemoglobin (MetHb) formation. Moreover, an antioxidant control containing ascorbic acid (AA) at a concentration of 10 µg/mL was prepared, while AAPH at a concentration of 50 mmol/L was an oxidizing agent. Antipsychotics at concentrations equaling their maximum therapeutic plasma concentrations (TPCmax), as well as 5-fold higher (5 × TPCmax) and 5-fold lower than TPCmax (1/5 × TPCmax), and the oxidizing agent AAPH at a concentration of 50 mmol/L, were added to 2% RBC suspension. Controls and tested samples were incubated at 37 °C. […] For each measurement, 0.5 mL samples were taken from incubated Eppendorf tubes and centrifuged (3000 rpm, 10 min). […] The percentage of hemolysis was calculated with the following formula:Hemolysis (%) = (Asample/Atotal hemolysis) × 100%(1) where Asample—absorbance of the test sample; Atotal hemolysis—the absorbance of the reference sample with 2% Triton X solution, corresponding to complete hemolysis.

BuChE [5] = target: T4, BuChE; test: Synergism of antipsychotics with donepezil/rivastigmine (binary mixtures), BuChE; settings: ComboSyn;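 further: combination index derived by median-effect analysis of combined drug effects on the cholinesterase, with values below 1 meaning synergism, exactly 1 additivity and above 1 antagonism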
Text: In turn, the concentrations of antipsychotics were constant in every measurement, and were chosen on the basis of estimated therapeutic plasma concentrations.
Automatic simulation of synergism and antagonism at all doses or effect levels is possible by computer software, based on algorithms. Calculation of the combination index (CI) and isobologram analyses enable to quantitatively determine drug interactions, where CI < 1, =1 and >1 indicate synergism, additive effect and antagonism, respectively. […] The software also allowed us to display the dose–effect curve, the median–effect plot and the dose-reduction index (DRI) plot [36].

In the case of `OCCOCCN1CCN(C2=Nc3ccccc3Sc3ccccc32)CC1` [Quetiapine, quetiapine], the IC50 [1] is reported as 6.08 ± 1.63 µM, the AChE reaction velocity ([2]; over 4000 µg/L (two ends of the printed span), control 0.264 ± 0.014 A/min) is reported as 0.257 ± 0.016 A/min and 0.241 ± 0.013 A/min and the IC50 ([2]; theoretical values calculated on the basis of extrapolated plots) is reported as greater than 100 µM. For the same compound, the “effect on Aβ aggregation after a longer incubation time” value [3] was “substantially inhibit”, the “Vmax(i) BuChE” value (BuChE [4]; compound at its IC50) was 0.138 ± 0.058 A/min and the “Vmax(i) BuChE” value (BuChE [4]; compound at ½ IC50) was 0.239 ± 0.026 A/min. The “type of inhibition of BuChE” value (BuChE [4]; from Km(i), Vmax(i) vs Km, Vmax, mixed inhibition) was “same type of inhibition”, the “methemoglobin formation with AAPH” value (human erythrocytes; 80 μg/L) was 17.1% and the “methemoglobin formation with AAPH” value (human erythrocytes; 400 μg/L) was 18.8%. The “CI (combination index), BuChE” value (BuChE [5]; donepezil 2 μmol/L + antipsychotic at TPCmax) was 0.64, the “CI (combination index), BuChE” value (BuChE [5]; donepezil 5 μmol/L + antipsychotic at TPCmax) was 0.64 and the “CI (combination index), BuChE” value (BuChE [5]; donepezil 10 μmol/L + antipsychotic at TPCmax) was 0.71. For the same compound, the “CI (combination index), BuChE” value (BuChE [5]; donepezil 20 μmol/L + antipsychotic at TPCmax) was 0.75, the “CI (combination index), BuChE” value (BuChE [5]; donepezil 50 μmol/L + antipsychotic at TPCmax) was 0.85 and the “CI (combination index), BuChE” value (BuChE [5]; rivastigmine 0.05 μmol/L + antipsychotic at TPCmax) was 2.24. For the same compound, the “CI (combination index), BuChE” value (BuChE [5]; rivastigmine 0.1 μmol/L + antipsychotic at TPCmax) was 1.42.
